Reference: patent US20250011330A1, “Imidazo[1,2- a]pyrazine and Imidazo[1,2- a]pyridine Based Tyrosyl-DNA Phosphodiesterase I (TDP1) Inhibitors” (The USA, As Represented by the Secretary, Department of …, priority 2021, published 2025)
Where two headings read alike, the source gives them in different places.

Legend:
[1] = biological target: T1, TDP1 (Homo sapiens (Human), UniProt Q9NUW8); assay: TDP1 gel-based in vitro fluorescence assay; assay type: biochemical; settings: for FC (fold change): Table 8, ratio of IC50 TDP2 to TDP1
T1 sequence (Q9NUW8 whole entry): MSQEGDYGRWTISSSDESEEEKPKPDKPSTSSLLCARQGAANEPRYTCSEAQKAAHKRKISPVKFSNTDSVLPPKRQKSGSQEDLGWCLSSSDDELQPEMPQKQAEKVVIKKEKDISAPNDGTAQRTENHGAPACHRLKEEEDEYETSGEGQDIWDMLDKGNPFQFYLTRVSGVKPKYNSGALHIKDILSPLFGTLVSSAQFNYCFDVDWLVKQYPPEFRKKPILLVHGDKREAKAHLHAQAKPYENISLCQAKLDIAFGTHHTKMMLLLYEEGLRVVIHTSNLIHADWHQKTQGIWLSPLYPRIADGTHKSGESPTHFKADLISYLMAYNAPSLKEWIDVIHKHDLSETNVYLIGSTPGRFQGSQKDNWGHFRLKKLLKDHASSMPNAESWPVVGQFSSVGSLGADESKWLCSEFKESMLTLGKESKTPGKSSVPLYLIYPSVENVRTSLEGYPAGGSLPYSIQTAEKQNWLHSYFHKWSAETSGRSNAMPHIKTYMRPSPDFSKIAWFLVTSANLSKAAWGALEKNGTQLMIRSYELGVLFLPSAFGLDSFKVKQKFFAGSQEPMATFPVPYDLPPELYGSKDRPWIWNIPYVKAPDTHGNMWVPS

[2] = biological target: T2, TDP2 (Homo sapiens (Human), UniProt O95551); assay: gel-based TDP2 fluorescence assay in vitro; assay type: biochemical; settings: read-out: TDP2 IC50
T2 sequence (O95551 whole entry, species assumed): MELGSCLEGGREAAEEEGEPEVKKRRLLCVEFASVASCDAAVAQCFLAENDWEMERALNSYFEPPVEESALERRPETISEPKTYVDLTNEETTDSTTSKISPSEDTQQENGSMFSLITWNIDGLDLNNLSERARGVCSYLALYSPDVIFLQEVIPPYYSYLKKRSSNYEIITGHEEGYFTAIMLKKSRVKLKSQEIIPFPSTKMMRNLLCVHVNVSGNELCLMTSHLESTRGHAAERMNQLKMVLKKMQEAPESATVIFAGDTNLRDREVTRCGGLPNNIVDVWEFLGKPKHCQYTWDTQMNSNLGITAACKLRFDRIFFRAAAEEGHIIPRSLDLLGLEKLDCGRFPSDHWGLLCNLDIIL

[3] = biological target: whole cell extract (WCE) human TDP1 (Homo sapiens (Human), UniProt Q9NUW8); assay: gel based whole cell extract (WCE) human TDP1 fluorescence assay; assay type: biochemical; settings: read-out: WCE hTDP1 IC50
Chain of whole cell extract (WCE) human TDP1 (Q9NUW8 whole entry): as the sequence (Q9NUW8 whole entry) above

[4] = system: human colon cancer cell line HCT116; assay: Synergistic effect with camptothecin (CPT) based on cell viability; settings: for synergy with camptothecin: list in description; for Synergy Score: with camptothecin (CPT), HCT116, 72 h, SynergyFinder 2.0
Description: The synergistic effects of the TDP1 inhibitors with CPT were tested in human colon cancer cell line HCT116 based on cell viability (Table 3, FIGS. 2-5). Cells were first seeded in a 384-well black-clear plate until 30% confluency and then incubated with a serial dilution of CPT at the range of 0-100 nM in the present or the absence of TDP1 inhibitors for 72 h at 37° C. Viable cell numbers were counted from the brightfield images taken by Biotek Cytation 5 (FIGS. 2-3). Fractional affect (Fa) and combination index (Ci) were analyzed with CompuSyn software. Synergistic scores of each TDP1 inhibitors were calculated and collected based on the data analysis from SynergyFinder (FIG. 4). […]

[5] = biological target: T1, TDP1; assay: Lineweaver-Burk plot analysis of TDP1 inhibition; assay type: biochemical
Description: Samples were then analyzed with a 20% DNA sequencing gel and exposed to a PhosphorImager screen for further analysis by Typhoon FLA 9500 (GE Healthcare). The Linearweaver-Burk plots (FIG. 1) were generated based on the substrate concentrations and corresponding reaction velocities.

[6] = biological target: T1, TDP1; assay: Degradation assay (western blotting) of TDP1 in HCT116 and HEK293 cells; assay type: cell-based; settings: list in description
Description: The degradation effect of the TDP1 inhibitors on TDP1 in human colon cancer cell line HCT116 and embryonic kidney cell line HEK293 were studied. Cells were first seeded in a 6-well plate until 60-80% confluency and then incubated with a serial dilution of TDP1 inhibitors at the range of 25-200 μM for 24-72 h at 37° C. […] Samples were then sonicated at 30% for 10 s and centrifuged for 15 min at 15000 rpm at 4 Celsius. Supernatant were collected and the concentration of total protein were measured by BCA Protein Assay Kit according to its protocols. Four micrograms of total protein for each sample were loaded and TDP1 level were conducted by western blotting.

[7] = biological target: TOP1 (Homo sapiens (Human), UniProt P11387); assay: Degradation of TOP1 in cells (western blotting); assay type: cell-based; settings: list in description
[8] = biological target: T2, TDP2; assay: TDP2 degrading activity as stated in the description; settings: list in description
[9] = Table 3, gel based TDP1 fluorescence assay, read-out: TDP1 IC50
[10] = Table 3, values in brackets (footnote vi), read-out: TDP1 IC50 (μM), separated data from previous experiments
[11] = Table 8, lead compounds with different linkers, read-out: TDP1 IC50
[12] = Table 8, lead compounds with different linkers

| Structure (SMILES) | IC50 ([1]; Table 1, imidazo[1,2-a]pyridin-3-amines, read-out: IC50) | IC50 [1, 9] | IC50 [1, 10] | TDP1 Selectivity ([1]; ratio of IC50 values of TDP1/TDP2) | IC50 ([2]; Table 3) | IC50 [3] | synergy with camptothecin [4] | Synergy Score [4] | IC50 ([1]; Table 2, imidazo[1,2-a]pyrazin-3-amine core, read-out: IC50) | Ki ([5]; FIG. 1 legend, Lineweaver-Burk analysis, read-out: Inhibitory constant Ki) | Ki ([5]; Table 3, constant of inhibition (FIG. 1), read-out: Ki) | IC50 [1, 11] | FC (fold change) [1] | IC50 [2, 12] | TDP1 degrading activity [6] | TOP1 degrading activity [7] | TDP2 degrading activity [8] |
| --- | --- | --- | --- | --- | --- | --- | --- | --- | --- | --- | --- | --- | --- | --- | --- | --- | --- |
| O=C(O)c1ccc(Nc2c(-c3ccc(-c4ccccc4)cc3)nc3ccc(C(=O)O)cn23)cc1 [Compound 8n, 2-([1,1′-Biphenyl]-4-yl)-3-((4-carboxyphenyl)amino)imidazo[1,2-a]pyridine-6-carboxylic acid] | 1.5 µM | 2.94 ± 0.47 µM | 1.5 µM | >34 | > 100 µM | > 100 µM | exhibit synergy with camptothecin | 11.3 | – | – | – | – | – | – | – | – | – |
| O=C(O)c1ccc(Nc2c(-c3ccccc3)nc3cnccn23)cc1C(=O)O [Compound 10a, 4-((2-Phenylimidazo[1,2-a]pyrazin-3-yl)amino)phthalic acid] | – | > 100 µM | 45.5 µM | – | > 100 µM | – | – | 4 | 45.5 µM | 110 ± 30.9 µM | 110 ± 30.9 µM | – | – | – | – | – | – |
| N#Cc1ccc(-c2ccc(Cn3cc(-c4ccc(-c5nc6cc(-c7ccccc7)ccn6c5Nc5ccc(C(=O)O)cc5)cc4)nn3)cc2)nc1 [XZ718, 4-((2-(4-(1-(4-(5-Cyanopyridin-2-yl)benzyl)-1H-1,2,3-triazol-4-yl)phenyl)-7-phenylimidazo[1,2-a]pyridin-3-yl)amino)benzoic acid] | – | – | – | – | – | – | exhibit synergy with camptothecin | – | – | – | – | 3.1 ± 0.2 µM | 8 | 25.9 ± 0.4 µM | exhibit TDP1 degrading activity | exhibit TOP1 degrading activity | exhibit TDP2 degrading activity |
| N#Cc1ccc(-c2ccc(Cn3cc(COc4ccc(-c5nc6cc(-c7ccccc7)ccn6c5Nc5ccc(C(=O)O)cc5)cc4)nn3)cc2)nc1 [XZ720, 4-((2-(4-((1-(4-(5-Cyanopyridin-2-yl)benzyl)-1H-1,2,3-triazol-4-yl)methoxy)phenyl)-7-phenylimidazo[1,2-a]pyridin-3-yl)amino)benzoic acid] | – | – | – | – | – | – | exhibit synergy with camptothecin | – | – | – | – | 23.5 ± 3.2 µM | 1 | 32.9 ± 2.7 µM | exhibit TDP1 degrading activity | exhibit TOP1 degrading activity | exhibit TDP2 degrading activity |
